Earlier results as cited in US12708665B2, “Anti-IL-1β antibody therapy in arrhythmogenic cardiomyopathy (ACM)” (Beth Israel Deaconess Medical Center, Inc., priority 2019, dated 2026).

Assays:
[1] = tested on: in vitro and in vivo models of ACM; details: multiple in vitro and in vivo models of ACM, human iPSC-cardiac myocytes from ACM patients; cited from earlier work
[2] = tested on: patients with coronary artery disease; details: cited from earlier work

Compound	effect on ACM disease phenotype (arrhythmias, exercise-induced sudden death, myocyte injury and apoptosis, inflammation, contractile dysfunction) [1]	infectious complications related to immunosuppression ([2]; in vivo)	major adverse cardiac events ([2]; patients with coronary artery disease, CANTOS trial)
Cn1cc(C2=C(c3ccc(Cl)cc3Cl)C(=O)NC2=O)c2ccccc21 [SB216763]	prevent and/or reverse the full ACM disease phenotype		
monoclonal antibody against IL-1β: monoclonal antibody against IL-1β used in the CANTOS trial (ref. 36)		not associated with significant infectious complications	significantly reduced
